Assay results published in patent publication US7939509B2, “Partial and full agonists of A1 adenosine receptors” (Gilead Sciences, Inc., priority 2002, dated 2011).
Several values for one entry are separate records, joined by “and”; a condition that tells them apart may be missing. Identical values can stand only once.

Legend:
[1] = cited from earlier work
awake rats [2] = assay: Anti-lipolytic effect: serum free fatty acids (FFA) in overnight-fasted awake rats; assay type: in vivo, rat
Method: All experimental procedures were performed under a protocol approved by the Institutional Animal Care and Use Committee of CV Therapeutics, Inc., and in accordance with the recommendations set forth in the Guide for the Care and Use of Laboratory Animals published by the National Research Council. Male Sprague-Dawley rats (225-250 gm) with either one or two indwelling catheters (carotid and jugular) were purchased from Charles River Laboratories (Wilmington, Mass.). Animals were housed 1 per cage in a room maintained on a 12 h light/dark cycle (light on 06.00-18.00 h) under constant temperature (22-25° C.) and with ad libitum access to food and water. The anti-lipolytic effects of Compound A were studied in awake rats. Animals were fasted overnight before experimental use. On the day of the experiment, animals were put in metabolic cages and left undisturbed to acclimate to the environment for 1-2 hrs. An infusion set (21 G×¾″, 0.8×19 mm U.T.W., 3½″, 9 cm tubing, volume 0.15 ml) was connected to the arterial catheter for blood sampling. A 1% sodium citrate saline solution was used to flush the lines. A pre-treatment blood sample was obtained from each animal to determine baseline values for FFA and TG. Compound A was given via oral gavage, sc injection, iv injection, or iv infusion, as described, for each different series of experiments. Blood samples were collected into serum separator tubes (Becton Dickinson, Franklin Lakes, N.J.) at pre-determined times, Blood was allowed to clot, and then centrifuged at 8000 rpm for 4 min at 4° C. The serum was stored at −80° C. and was thawed at 4° C. for determinations of FFA and TG contents. […] Sodium citrate and Triton WR1339 were purchased from Sigma (St. Louis, Mo.). Nicotinic acid and PEG 400 were purchased from VWR (by EMD Chemicals). Triton WR 1339 was diluted in warm saline (˜37° C.) with frequent vortexing. […] Compound A was dissolved in PEG 400, and then diluted with distilled water to make a 20% PEG drug solution. Serum FFA and TGs were measured using commercial kits from Wako Chemicals, Richmond, Va. Glucose and Insulin were measured using commercial kits from Wako Chemicals USA (Richmond, Va.). All data are reported as mean±SEM. Statistical analysis of data from experiments with 2 treatment groups was performed using the unpaired Student's t-test. Two way analysis of variance followed by Bonferroni's test was used for multiple comparisons.

awake rats [3] = assay: Insulin dose response to reduce FFA with and without Compound A in awake rats; assay type: in vivo, rat
Method: FIG. 6 graphically represents how Compound A potentates the effect of insulin in reducing FFA levels. Shown are the dose response curves for the effect of insulin to reduce FFA obtained in the absence and presence of Compound A (0.5 mg/kg) in awake rats. Both insulin and Compound A were given via IP injection. Each data point is the mean±SEM of the maximal (peak effect) percent decrease in FFA levels from baseline from three to five rats.
The anti-lipolytic effects of Compound A were studied in awake rats. Animals were fasted overnight before experimental use. On the day of the experiment, animals were put in metabolic cages and left undisturbed to acclimate to the environment for 1-2 hrs. An infusion set (21 G×¾″, 0.8×19 mm U.T.W., 3½″, 9 cm tubing, volume 0.15 ml) was connected to the arterial catheter for blood sampling. A 1% sodium citrate saline solution was used to flush the lines. A pre-treatment blood sample was obtained from each animal to determine baseline values for FFA and TG. Compound A was given via oral gavage, sc injection, iv injection, or iv infusion, as described, for each different series of experiments. Blood samples were collected into serum separator tubes (Becton Dickinson, Franklin Lakes, N.J.) at pre-determined times, Blood was allowed to clot, and then centrifuged at 8000 rpm for 4 min at 4° C. The serum was stored at −80° C. and was thawed at 4° C. for determinations of FFA and TG contents.
The effect of insulin (0.005-1 U/kg) to reduce serum FFA was determined in the absence and presence of a single dose (0.5 mg/kg) of Compound A (FIG. 6). Baseline FFA levels before insulin administration in vehicle and Compound A treated groups were 0.84±0.01 and 0.92±0.02 mM, respectively. […] The insulin dose response to reduce FFA levels was then repeated in the presence of Compound A (0.5 mg/kg). Compound A alone (0.5 mg/kg) caused an 18% decrease in FFA levels. The doses of insulin that cause 50% decrease (ED50) in FFA levels in the absence and presence of Compound A were 0.4 and 0.1 U/kg, respectively.

Nc1ncnc2c1ncn2[C@@H]1O[C@H](CO)[C@@H](O)[C@H]1O [adenosine]
half-life [1]: less than 10 sec

O=C(O)c1cccnc1 [nicotinic acid, reference compound]
maximal decrease in FFA levels (awake rats [2]; 10 mg/kg iv bolus): 57±5%
FFA level after treatment (awake rats [2]; 10 mg/kg iv bolus, from 0.85±0.09, p<0.001): 0.35 ± 0.01 nM
rebound increase of FFA levels (awake rats [2]; after iv bolus): seen

insulin
dose of insulin that causes 50% decrease (ED50) in FFA levels (awake rats [3]; in the absence of Compound A): 0.4 (0.3916-0.4208, 95% Cl) U/kg and 0.4 U/kg
dose of insulin that causes 50% decrease (ED50) in FFA levels (awake rats [3]; in the presence of Compound A (0.5 mg/kg IP), 0.5 mg/kg): 0.1 (0.0935-0.133) U/kg and 0.1 U/kg
lowering of FFA levels by insulin (awake rats [3]; insulin 0.005-1 U/kg IP, without Compound A): up to 67±1%
